Measurements: patent US20120269739A1, “COMPOSITION, USE, AND PRESERVATION METHOD” (L'OREAL, priority 2009, published 2012)

Columns and labels:
[1] = test system: Pseudomonas aeruginosa (Pa) ATCC 19429; experiment: Challenge Test (artificial contamination) of cosmetic formula; details: 22° C., chlorhexidine digluconate 0.3%, gingerone 2%
Description: The antimicrobial efficacy of a compound of formula (I) was evaluated via the Challenge Test or artificial contamination method.
The method of the challenge test consists of an artificial contamination of the sample with collection microbial strains (bacteria, yeasts and moulds) and evaluation of the number of revivable microorganisms seven days after the inoculation.
The gram-negative bacteria (Escherichia coli and Pseudomonas aeruginosa), gram-positive bacteria (Enterococcus faecalis), yeast (Candida albicans) and mould (Aspergillus niger) are seeded in the subculturing medium, respectively, the day before the inoculation for the bacteria and the yeast, and five days before the inoculation for the mould.
After homogenizing the microbial suspension, 0.2 ml of inoculum is introduced into each pill bottle (the suspensions are used pure: between 1×10^8 and 3×10^8 cfu per ml) and the microbial suspension in the 20 g of product (=cosmetic formula) is homogenized thoroughly using a spatula.
The content of microorganisms present in the product corresponds after homogenization to a concentration of 10^6 microorganisms per gram of product, i.e. inoculation to 1% of an inoculum containing 10^8 microorganisms per ml.
After 7 days of contact time between the microorganisms and the product at 22° C.±2° C. and in darkness, decimal dilutions are performed and the number of revivable microorganisms remaining in the product is counted.

[2] = test system: Staphylococcus aureus (ATCC 6538); experiment: Action kinetics in broth; format: cell-based; details: TS broth pH 5.2±0.3, 35° C., gingerone 2%, sodium benzoate 3.3%, chlorhexidine digluconate 2.2%
Description: (§1) The object of this example is to distinguish a compound according to the invention (gingerone) from the preserving agents conventionally used for protecting cosmetic formulations against microbial contamination, as regards the action kinetics.
(§2) The solutions are prepared in Trypto-casein-soya (TS) broth for the bacteria and in Sabouraud broth for the yeast. These solutions are adjusted to pH 5.2±0.3.
(§3) For each microbial solution, a growth control consisting of the appropriate culture medium alone is prepared.
(§4) The solutions in TS broth (36 ml) are inoculated separately with each of the bacteria (4 ml of microbial suspension) to a final content of 10^6 cfu/ml of mixture.
(§5) The inoculated samples are then placed in an incubator-agitator at 35° C.±2° C. Samples are taken after 6 hours, 24 hours, 48 hours, 72 hours and 7 days. Decimal dilutions are then prepared in Eugon LT100 broth. These dilutions are left for 30 minutes±15 minutes at 25° C. in order to neutralize the preserving agents, and are then double-seeded on the surface of Petri dishes containing Eugon LT100 agar.
(§6) The Petri dishes are then incubated in an oven at 35° C.±2° C. for a variable time depending on the strain concerned: • 48 hours; S. aureus; • 5 days: E. faecalis and C. albicans.
(§7) The results are expressed for each solution, each strain and each contact time as the number of cfu/ml of stock solution.

[3] = test system: Enterococcus faecalis (ATCC 33186); experiment: Action kinetics in broth; format: cell-based; details: TS broth pH 5.2±0.3, 35° C., gingerone 2%, sodium benzoate 3.3%, chlorhexidine digluconate 2.2%
Description: as §1, §2, §3, §4, §5, §6, §7

[4] = test system: Escherichia coli (Ec) ATCC 8739; experiment: Challenge Test (artificial contamination) of cosmetic formula; format: cell-based; details: 22° C., chlorhexidine digluconate 0.3%, gingerone 2%
Excerpt: (§8) 5 pure microorganism cultures are used.

[5] = test system: Candida albicans (Ca) ATCC 10231; experiment: as above; format: cell-based; details: 22° C., chlorhexidine digluconate 0.3%, gingerone 2%; for Log reduction number after 7 days of contact, relative to the control, Candida albicans: Amt weight %: sodium benzoate 0.6%
Excerpt: as §8

[6] = test system: Aspergillus niger (An) ATCC 6275; experiment: as above; format: cell-based; details: 22° C., chlorhexidine digluconate 0.3%, gingerone 2%
Excerpt: as §8

[7] = test system: Enterococcus faecalis (Ef) ATCC 33186; experiment: as above; format: cell-based; details: 22° C., chlorhexidine digluconate 0.3%, gingerone 2%
Excerpt: as §8

[8] = test system: bacteria and yeast; experiment: Action kinetics, overall conclusion; format: cell-based; details: gingerone 2%; in particular on the bacteria
Description: as §1, §5

[9] = test system: Candida albicans (ATCC 10231); experiment: Action kinetics in broth; format: cell-based; details: Sabouraud broth pH 5.2±0.3, 35° C., gingerone 2%, sodium benzoate 3.3%, chlorhexidine digluconate 2.2%
Description: as §1, §2, §3
The solutions in Sabouraud broth (36 ml) are inoculated with the yeast (4 ml of suspension) to a final content of 10^6 cfu/ml.
as §5, §6, §7

[10] = test system: collection microbial strains (bacteria, yeasts and moulds); experiment: Challenge Test, overall finding over strains and formulas; format: cell-based; details: three formulas, five strains, gingerone 2%
[11] = 1st formula O/W emulsion, Amt weight %: phenoxyethanol 1%, sodium benzoate 0.6%
[12] = 2nd formula lotion (pH 7 ± 0.2), Amt weight %: sodium benzoate 0.6%, phenoxyethanol 1%
[13] = 3rd formula O/W emulsion, Amt weight %: sodium benzoate 0.6%

COc1cc(CCC(C)=O)ccc1O [Gingerone, gingerone]
Log reduction number after 7 days of contact, relative to the control, P. aeruginosa [1, 11]: >4 Log
Log reduction number after 7 days of contact, relative to the control, P. aeruginosa [1, 12]: >3 Log
Log reduction number after 7 days of contact, relative to the control, P. aeruginosa [1, 13]: >4 Log
Number of cfu counted after strain/solution contact time, Staphylococcus aureus ([2]; contact time 0 hours, first series): 1.7 × 10^6 cfu/ml
Number of cfu counted after strain/solution contact time, Staphylococcus aureus ([2]; contact time 0 hours, second series of Table 1): 2.5 × 10^6 cfu/ml
Number of cfu counted after strain/solution contact time, Staphylococcus aureus ([2]; contact time 6 hours, first series): 1.2 × 10^6 cfu/ml
Number of cfu counted after strain/solution contact time, Staphylococcus aureus ([2]; contact time 6 hours, second series of Table 1): 1.2 × 10^6 cfu/ml
Number of cfu counted after strain/solution contact time, Staphylococcus aureus ([2]; contact time 24 hours, first series): 1.7 × 10^5 cfu/ml
Number of cfu counted after strain/solution contact time, Staphylococcus aureus ([2]; contact time 24 hours, second series of Table 1): 1.6 × 10^5 cfu/ml
Number of cfu counted after strain/solution contact time, Staphylococcus aureus ([2]; contact time 48 hours, first series): 8.1 × 10^3 cfu/ml
Number of cfu counted after strain/solution contact time, Staphylococcus aureus ([2]; contact time 48 hours, second series of Table 1): 9.6 × 10^3 cfu/ml
Number of cfu counted after strain/solution contact time, Staphylococcus aureus ([2]; contact time 72 hours, first series): 40 cfu/ml
Number of cfu counted after strain/solution contact time, Staphylococcus aureus ([2]; contact time 72 hours, second series of Table 1): 1.3 × 10^2 cfu/ml
Number of cfu counted after strain/solution contact time, Staphylococcus aureus ([2]; contact time 168 hours, first series): <100 cfu/ml
Number of cfu counted after strain/solution contact time, Staphylococcus aureus ([2]; contact time 168 hours, second series of Table 1): <10 cfu/ml
Number of cfu counted after strain/solution contact time, Enterococcus faecalis ([3]; contact time 0 hours): 2.5 × 10^6 cfu/ml
Number of cfu counted after strain/solution contact time, Enterococcus faecalis ([3]; contact time 6 hours): 4.4 × 10^5 cfu/ml
Number of cfu counted after strain/solution contact time, Enterococcus faecalis ([3]; contact time 24 hours): 1.2 × 10^4 cfu/ml
Number of cfu counted after strain/solution contact time, Enterococcus faecalis ([3]; contact time 48 hours): 6.3 × 10^2 cfu/ml
Number of cfu counted after strain/solution contact time, Enterococcus faecalis ([3]; contact time 72 hours): 80 cfu/ml
Number of cfu counted after strain/solution contact time, Enterococcus faecalis ([3]; contact time 168 hours): <10 cfu/ml
Log reduction number after 7 days of contact, relative to the control, E. coli [4, 11]: >4 Log
Log reduction number after 7 days of contact, relative to the control, E. coli [4, 12]: >4 Log
Log reduction number after 7 days of contact, relative to the control, E. coli [4, 13]: >4 Log
Log reduction number after 7 days of contact, relative to the control, C. albicans [5, 11]: >4 Log
Log reduction number after 7 days of contact, relative to the control, Candida albicans ([5]; 2nd formula lotion (pH 7 ± 0.2), phenoxyethanol 1%): >3 Log
Log reduction number after 7 days of contact, relative to the control, Candida albicans ([5]; 3rd formula O/W emulsion): >4 Log
Log reduction number after 7 days of contact, relative to the control, A. niger [6, 11]: >4 Log
Log reduction number after 7 days of contact, relative to the control, A. niger [6, 12]: >4 Log
Log reduction number after 7 days of contact, relative to the control, A. niger [6, 13]: 0.6 Log
Log reduction number after 7 days of contact, relative to the control, E. faecalis [7, 11]: >4 Log
Log reduction number after 7 days of contact, relative to the control, E. faecalis [7, 12]: >0.5 Log
Log reduction number after 7 days of contact, relative to the control, E. faecalis [7, 13]: >4 Log
action kinetics in comparison with conventional preserving agents [8]: much more slowly
Number of cfu counted after strain/solution contact time, Candida albicans ([9]; contact time 0 hours): 2.9 × 10^6 cfu/ml
Number of cfu counted after strain/solution contact time, Candida albicans ([9]; contact time 6 hours): 2.9 × 10^2 cfu/ml
Number of cfu counted after strain/solution contact time, Candida albicans ([9]; contact time 24 hours): <10 cfu/ml
Number of cfu counted after strain/solution contact time, Candida albicans ([9]; contact time 48 hours): <10 cfu/ml
Number of cfu counted after strain/solution contact time, Candida albicans ([9]; contact time 72 hours): <10 cfu/ml
Number of cfu counted after strain/solution contact time, Candida albicans ([9]; contact time 168 hours): <10 cfu/ml
antimicrobial efficacy across strains and formulatory supports [10]: efficient irrespective of the strain and of the support
